Data: US4181574A, “Production of antibiotics by fermentation of novel strains of Micropolyspora caesia” (priority 1978, dated 1980)
In brackets after ≈: the same amount, converted by molar mass. Structures can show the parent of a compound that is named as a salt. Where two headings read alike, the source gives them in different places.

What was measured:
Solubility = assay type: physicochemical; conditions: lower alcohols, ethyl acetate, chloroform and benzene
S. pyogenes A20201 = experiment: Systemic infection with S. pyogenes in mice; assay type: in vivo; conditions: po; 5 days
[1] = Stability in acidic and alkaline solution; assay type: physicochemical; conditions: for stability in alkaline solution: relative to acidic
aerobic bacteria = experiment: antibacterial activity against aerobic bacteria; assay type: cell-based; conditions: for activity against usual aerobic organisms: E. coli and K. pneumoniae; for susceptibility of Bacillus species, streptococci, Neisseria meningitidis, N. gonorrhoeae and Hemophilus influenzae: in vitro
[2] = tested on: various aerobic and anaerobic organisms; experiment: Antibacterial spectrum; conditions: variety of anaerobic bacteria and some aerobic bacteria
[3] = tested on: Neisseria meninigitidis A21496; experiment: MIC, serial two-fold agar dilution, aerobic bacteria; assay type: cell-based; conditions: Nm-4, medium B: GC medium (Eiken)
[4] = tested on: Klebsiella pneumoniae A9678; experiment: as above; assay type: cell-based; conditions: Kp-2; medium A: Nutrient agar (Eiken)
C. perfringens A9635 = assay type: in vivo, mice; conditions: po; 5 days
B. fragilis A20928-1 = experiment: Inoculum size effect on MIC; assay type: cell-based; conditions: Bacteroides fragilis, A209281, read-out: MIC in GAM broth, GAM broth; inoculum […] 10^6 cell/ml
[5] = tested on: two anaerobic and one aerobic organisms; experiment: Bactericidal activity; assay type: cell-based
[6] = tested on: C. perfringens or S. pyogenes; assay type: in vivo, mice
B. fragilis A20926 = experiment: Localized infection with B. fragilis in mice; assay type: in vivo
[7] = tested on: Neisseria meninigitidis A20049; experiment: MIC, serial two-fold agar dilution, aerobic bacteria; assay type: cell-based
[8] = subcutaneous and oral
[9] = tested on: Escherichia coli K-12 A9632; experiment: MIC, serial two-fold agar dilution, aerobic bacteria; conditions: K12A9632
bacterial RNA polymerase = conditions: Antimicrobial Agents and Chemotherapy 1976, page 618; cited from earlier work
[10] = Nm-2, medium B: GC medium (Eiken), read-out: MIC

| Structure (SMILES) | MIC [3] | mean score (B. fragilis A20926; oral, 6.3 × 5 mg/kg) | sum of score (B. fragilis A20926; oral, 6.3 × 5 mg/kg) | mean score (B. fragilis A20926; oral, 25 × 5 mg/kg) | sum of score (B. fragilis A20926; oral, 25 × 5 mg/kg) | sum of score (B. fragilis A20926; oral, 100 × 5 mg/kg) | mean score (B. fragilis A20926; oral, […] 5 mg/kg) | sum of score (B. fragilis A20926; oral, […] 5 mg/kg) | mean score (B. fragilis A20926; subcutaneous, 0.8 × 5 mg/kg) | sum of score (B. fragilis A20926; subcutaneous, 0.8 × 5 mg/kg) | mean score (B. fragilis A20926; subcutaneous, 3.1 × 5 mg/kg) | sum of score (B. fragilis A20926; subcutaneous, 3.1 × 5 mg/kg) | mean score (B. fragilis A20926; subcutaneous, 50 × 5 mg/kg) | sum of score (B. fragilis A20926; subcutaneous, 50 × 5 mg/kg) | mean score (B. fragilis A20926; subcutaneous, […] 5 mg/kg) | sum of score (B. fragilis A20926; subcutaneous, […] 5 mg/kg) | also measured |
| --- | --- | --- | --- | --- | --- | --- | --- | --- | --- | --- | --- | --- | --- | --- | --- | --- | --- |
| COC(=O)C1C(C)OC2(C)CC(=O)C3OC12OC(C(C)/C=C(C)/C=C/C(=O)C1=C(O)CN(C)C1=O)C3C (centres unmarked) [Bu-2313A] | 3.1 µg/mL (≈ 5.99 µM) | – | – | – | – | – | – | – | – | – | – | – | – | – | – | – | solubility in most organic solvents (Solubility): readily soluble; PD50 (S. pyogenes A20201): NA at 25; stability in acidic solution [1]: stable; stability in alkaline solution [1]: less so; activity against usual aerobic organisms (aerobic bacteria): only moderate to weak activity; susceptibility of Bacillus species, streptococci, Neisseria meningitidis, N. gonorrhoeae and Hemophilus influenzae (aerobic bacteria): susceptible; antibacterial activity [2]: exhibit antibacterial activity; MIC [4]: > meningitidis; PD50 (C. perfringens A9635): NA at 50; MIC (B. fragilis A20928-1): 0.006 µg/mL (≈ 0.0116 µM); type of antibacterial action [5]: bacteriostatic rather than bactericidal; activity by the oral route ([6]; oral): inactive |
| COC(=O)C1C(C)OC2(C)CC(=O)C3OC12OC(C(C)/C=C(C)/C=C/C(=O)C1=C(O)CNC1=O)C3C (centres unmarked) [Bu-2313B (Na salt)] | – | 3.4 | 17 | 3.0 | 15 | 12 | 4.0 | 20 | 4.0 | 20 | 3.4 | 17 | 2.2 | 11 | 2.8 | 14 | mean score (B. fragilis A20926; oral, 100 × 5 mg/kg): 2.4 |
| COC(=O)C1C(C)OC2(C)CC(=O)C3OC12OC(C(C)/C=C(C)/C=C/C(=O)C1=C(O)CNC1=O)C3C (centres unmarked) [Bu-2313B] | 1.6 µg/mL (≈ 3.18 µM) | – | – | – | – | – | – | – | – | – | – | – | – | – | – | – | solubility in most organic solvents (Solubility): readily soluble; stability in acidic solution [1]: stable; stability in alkaline solution [1]: less so; activity against usual aerobic organisms (aerobic bacteria): only moderate to weak activity; susceptibility of Bacillus species, streptococci, Neisseria meningitidis, N. gonorrhoeae and Hemophilus influenzae (aerobic bacteria): susceptible; MIC [7, 10]: 0.8 µg/mL (≈ 1.59 µM); antibacterial activity [2]: exhibit antibacterial activity; type of antibacterial action [5]: bacteriostatic rather than bactericidal; protection against systemic infections ([6]; both subcutaneous and oral administration): fairly good protection |
| CCC[C@@H]1C[C@@H](C(=O)N[C@@H]([C@H]2O[C@H](SC)[C@H](O)[C@@H](O)[C@H]2O)[C@H](C)Cl)N(C)C1 [Clindamycin] | – | 2.6 | 13 | 1.8 | 9 | 2 | 4.0 | 20 | 4.0 | 20 | 2.0 | 10 | 0.8 | 4 | 1.4 | 7 | MIC [7]: 0.05 µg/mL (≈ 0.118 µM) |
| Cc1ncc([N+](=O)[O-])n1CCO [Flagyl] | – | 3.4 | 17 | 2.6 | 13 | 8 | 4.0 | 20 | 4.0 | 20 | 3.4 | 17 | 2.0 | 10 | 2.4 | 12 | absorption relative to Bu-2313B [8]: better absorptions than Bu-2313B; mean score (B. fragilis A20926; oral, 100 × 5 mg/kg): 1.6 |
| CC(/C=C/C(=O)C1=C(O)CNC1=O)=C\C(C)C1OC2(C)OC(C(=O)C3OC32C)C1C (centres unmarked) [Tirandamycin] | 0.8 µg/mL (≈ 1.92 µM) | – | – | – | – | – | – | – | – | – | – | – | – | – | – | – | MIC [9]: 100 µg/mL (≈ 240 µM); inhibition of bacterial RNA polymerase (bacterial RNA polymerase): inhibitor of bacterial RNA polymerase; MIC [7, 10]: 0.8 µg/mL (≈ 1.92 µM) |
| CNC(=O)C(C)C1C(O)=C(C(=O)/C=C/C(C)=C/C(C)C2OC3(C)OC(C=CC34CO4)C2C)C(=O)N1C1CCC(O)C(C)O1 (centres unmarked) [streptolydigin] | – | – | – | – | – | – | – | – | – | – | – | – | – | – | – | – | inhibition of bacterial RNA polymerase (bacterial RNA polymerase): inhibitor of bacterial RNA polymerase in a manner similar to streptolydigin |
